{
  "source": "patent US20040009189A1",
  "about": "“Antimutagenic effects of ganoderma lucidum spores” (priority 2002, published 2004)",
  "key": {"[1]": {"tested_on": "bone marrow cells of mice", "description": "Male NIH mice weighing 22-25 g, provided by the Guangdong Provincial Animal Center for Medical Experiments, were used. […] Each group contained 5 mice. Dosages were administered once a day for 3 consecutive days, orally via gavage.\nDistilled water was then added to adjust the suspension to the required concentration. The compound was orally administered through gavage at 0.4 ml/10 g of body weight. […] Twenty four (24) hours after the last administration the animals were sacrificed by dislocation of the cervical vertebra. The femur was then removed, the muscle stripped away, and the bone marrow flushed out using phosphate buffer, centrifuged, fixed hyponotically and the chromosome sample is prepared using methods routine in the art. It was then stained for 10 min using 10% Giemsa's stain (pH 6.8).\nWell dispersed Metaphase cells were selected for observation under the oil immersion lens. One hundred (100) metaphase cells were observed per animal, the number of cells with chromosomal aberrations noted, and the chromosomal aberration rate calculated. The data obtained were analyzed statistically calculated using SPSS for Windows 8.0 (t-test)."}, "[2]": {"tested_on": "mice bone marrow cell chromosomal aberration induced by cyclophosphamide", "conditions": "500 cells", "excerpt": "The test used was the modified mice bone marrow cell micronucleus test as specified in “A Notice Concerning Issuance of the Revised Items of the ‘Health Food Functional Assessment Procedures and Testing Methods’,” a document from the Ministry of Public Health of the People's Republic of China, which is hereby incorporated by reference.\nThe mice were randomly divided by weight into 9 groups, 5 males and 5 females respectively per group. Animals in each group were given the following treatment:\nThe drug was prepared as a suspension of the required concentration in distilled water, and administered orally through tube at individual dosages of 0.2 mL/10 g of body weight. The negative control group was given distilled water of the equivalent volume through tube once a day for 30 days continuously. […] 4 hours before the mice were sacrificed they are given colchicine, and the bone marrow was extracted in order to prepare the chromosome samples in the routine way.\nSamples from each group were observed. One hundred (100) metaphase cells per mouse were observed, and the chromosomal structures and the numbers of aberrations were recorded. Using SPSS for Windows 8.0 (t-test), a comparative analysis was made of the experimental data from the various dosage groups and the positive groups and tested to find out if there was any significant difference between the males and females within the group."}, "fetal rats [3]": {"tested_on": "fetal rats", "assay": "Effects on early embryo development in pregnant rats", "type": "in vivo", "conditions": "aspirin 250 mg/kg oral, days 10-12 of pregnancy; 14 pregnant rats", "text": "(§1) To test the embryotoxicity and teratogenic effects of GASP, a rat model was used.\n(§2) Healthy SD rats weighing between 200-250 g were selected and housed together overnight at a 2:1 ratio of females to males. Beginning on the next day, vaginal smears were examined each morning, and the date when sperm was found was considered day 0 of pregnancy.\n(§3) The pregnant rats were randomly divided into 5 groups, 18 rats per group. […] The human clinical dose was four capsules per dose (each capsule containing 0.3 g of the GSAP), four times daily. The study was designed so that the low dose group was 428.6 mg/kg, medium dose group was 2143 mg/kg, and the high dose group was 4286 mg/kg (equivalent to 1, 5, and 10 times the human clinical dose, respectively, when calculated according to the respective body surface areas of the rat and human). During the 6-15 days of the pregnancy, the GASP was orally administered to the rats in the dosage groups at a volume of 1.5 ml/100 g through gavage. The positive control group was given aspirin (250 mg/kg) on days 10-12 of the pregnancy, at the volume of 1.0 ml/100 g orally by means of a stomach tube, while the negative control group was given the equivalent amount of distilled water orally through gavage.\nAll the pregnant rats were weighed once every 3 days, so as to adjust the dosage. On the day 20 of the pregnancy, the animals were sacrificed by dislocating the vertebra, and a cesarean was performed to obtain the fetal rats in order to check various indexes and for statistical analysis."}, "fetal rats [4]": {"tested_on": "fetal rats", "assay": "Effects on fetal rat organogenesis (Bouins fixation, sectioning)", "design": "species or system Sprague Dawley (SD) rats", "conditions": "female, Sprague-Dawley, in vivo", "excerpt": "Approximately ⅓ of the fetal rats were removed per litter, fixed with Bouins solution and then manually sectioned, with the various internal organs being then observed under the dissecting microscope."}, "[5]": {"assay": "Weight gain of the pregnant rats (embryotoxicity/teratogenicity study)", "type": "in vivo", "conditions": "days 10-12 of pregnancy", "text": "as §1, §2, §3\nAll the pregnant rats were weighed once every 3 days, so as to adjust the dosage. […]"}, "[6]": {"conditions": "positive control: cyclophosphamide 40 mg/kg oral, single administration, 500 cells counted"}, "[7]": {"conditions": "CP 40 mg/kg alone (positive group), F"}, "[8]": {"conditions": "CP 40 mg/kg alone (positive group), M"}, "[9]": {"conditions": "CP 50 mg/kg alone (positive group 4), F"}, "[10]": {"conditions": "CP 50 mg/kg alone (positive group 4), M"}},
  "note": "Read-outs that look alike come from different tables or passages of the source. Marks after values point to notes of the source that are not given here.",
  "data": [
    {"smiles": "O=P1(N(CCCl)CCCl)NCCCO1", "note": "(stereo not shown) [CP, cyclophosphamide]", "values": [
      {"measurement": "Chromosomal aberration rate vs negative control group", "setting": "[1]; CP 40 mg/kg, p<0.01", "value": "noticeably higher than that of the negative control group"},
      {"measurement": "Chromosomal Aberration Rate (%)", "setting": "[1]; [6]", "value": "25.0* %"},
      {"measurement": "No. aberrant cells", "setting": "[1]; [6]", "value": 115},
      {"measurement": "Type and Number of Aberration: I (chromosomal fragmentation)", "setting": "[1]; [6]", "value": 35},
      {"measurement": "Type and Number of Aberration: b (chromosomal breakage)", "setting": "[1]; [6]", "value": "b(48)"},
      {"measurement": "Type and Number of Aberration: f (chromosal fusion)", "setting": "[1]; [6]", "value": 59},
      {"measurement": "Abberant Cell Count", "setting": "[2]; [7]", "value": 118},
      {"measurement": "Abnormality Rate", "setting": "[2]; [7]", "value": 1.2},
      {"measurement": "Cell Aberration Rate %", "setting": "[2]; [7]", "value": 23.6, "unit": "%"},
      {"measurement": "No. of Abnormalities Polyploid", "setting": "[2]; [7]", "value": 5},
      {"measurement": "No. of Abnormalities hyperploid", "setting": "[2]; [7]", "value": 1},
      {"measurement": "No. of Abormal Cells", "setting": "[2]; [7]", "value": 6},
      {"measurement": "crb (chromatid break)", "setting": "[2]; [7]", "value": 95},
      {"measurement": "csb (chromosome break)", "setting": "[2]; [7]", "value": 28},
      {"measurement": "csg (chromosome gap)", "setting": "[2]; [7]", "value": 0},
      {"measurement": "ctg (chromatid gap)", "setting": "[2]; [7]", "value": 16},
      {"measurement": "del (nullisomic)", "setting": "[2]; [7]", "value": 50},
      {"measurement": "dmin (dimicrobody)", "setting": "[2]; [7]", "value": 0},
      {"measurement": "f (fragment)", "setting": "[2]; [7]", "value": 60},
      {"measurement": "r (ring chromosome)", "setting": "[2]; [7]", "value": 0},
      {"measurement": "tr (triradial)", "setting": "[2]; [7]", "value": 21},
      {"measurement": "Abberant Cell Count", "setting": "[2]; [8]", "value": 108},
      {"measurement": "Abnormality Rate", "setting": "[2]; [8]", "value": 1.8},
      {"measurement": "Cell Aberration Rate %", "setting": "[2]; [8]", "value": 21.6, "unit": "%"},
      {"measurement": "No. of Abnormalities Polyploid", "setting": "[2]; [8]", "value": 6},
      {"measurement": "No. of Abnormalities hyperploid", "setting": "[2]; [8]", "value": 1},
      {"measurement": "No. of Abormal Cells", "setting": "[2]; [8]", "value": 9},
      {"measurement": "crb (chromatid break)", "setting": "[2]; [8]", "value": 94},
      {"measurement": "csb (chromosome break)", "setting": "[2]; [8]", "value": 19},
      {"measurement": "csg (chromosome gap)", "setting": "[2]; [8]", "value": 0},
      {"measurement": "ctg (chromatid gap)", "setting": "[2]; [8]", "value": 18},
      {"measurement": "del (nullisomic)", "setting": "[2]; [8]", "value": 47},
      {"measurement": "dmin (dimicrobody)", "setting": "[2]; [8]", "value": 0},
      {"measurement": "f (fragment)", "setting": "[2]; [8]", "value": 62},
      {"measurement": "r (ring chromosome)", "setting": "[2]; [8]", "value": 0},
      {"measurement": "tr (triradial)", "setting": "[2]; [8]", "value": 15},
      {"measurement": "Abberant Cell Count", "setting": "[2]; [9]", "value": 221},
      {"measurement": "Abnormality Rate", "setting": "[2]; [9]", "value": 2.0},
      {"measurement": "No. of Abnormalities Polyploid", "setting": "[2]; [9]", "value": 5},
      {"measurement": "No. of Abnormalities hyperploid", "setting": "[2]; [9]", "value": 5},
      {"measurement": "No. of Abormal Cells", "setting": "[2]; [9]", "value": 10},
      {"measurement": "crb (chromatid break)", "setting": "[2]; [9]", "value": 185},
      {"measurement": "csb (chromosome break)", "setting": "[2]; [9]", "value": 21},
      {"measurement": "csg (chromosome gap)", "setting": "[2]; [9]", "value": 0},
      {"measurement": "ctg (chromatid gap)", "setting": "[2]; [9]", "value": 18},
      {"measurement": "del (nullisomic)", "setting": "[2]; [9]", "value": 103},
      {"measurement": "dmin (dimicrobody)", "setting": "[2]; [9]", "value": 0},
      {"measurement": "f (fragment)", "setting": "[2]; [9]", "value": 117},
      {"measurement": "r (ring chromosome)", "setting": "[2]; [9]", "value": 0},
      {"measurement": "tr (triradial)", "setting": "[2]; [9]", "value": 32},
      {"measurement": "Abberant Cell Count", "setting": "[2]; [10]", "value": 198},
      {"measurement": "Abnormality Rate", "setting": "[2]; [10]", "value": 2.2},
      {"measurement": "No. of Abnormalities Polyploid", "setting": "[2]; [10]", "value": 9},
      {"measurement": "No. of Abnormalities hyperploid", "setting": "[2]; [10]", "value": 2},
      {"measurement": "No. of Abormal Cells", "setting": "[2]; [10]", "value": 11},
      {"measurement": "crb (chromatid break)", "setting": "[2]; [10]", "value": 170},
      {"measurement": "csb (chromosome break)", "setting": "[2]; [10]", "value": 33},
      {"measurement": "csg (chromosome gap)", "setting": "[2]; [10]", "value": 0},
      {"measurement": "ctg (chromatid gap)", "setting": "[2]; [10]", "value": 18},
      {"measurement": "del (nullisomic)", "setting": "[2]; [10]", "value": 92},
      {"measurement": "dmin (dimicrobody)", "setting": "[2]; [10]", "value": 0},
      {"measurement": "f (fragment)", "setting": "[2]; [10]", "value": 100},
      {"measurement": "r (ring chromosome)", "setting": "[2]; [10]", "value": 1},
      {"measurement": "tr (triradial)", "setting": "[2]; [10]", "value": 29}
    ]},
    {"smiles": "CC(=O)Oc1ccccc1C(=O)O", "note": "[Aspirin, aspirin]", "values": [
      {"measurement": "Mean no. survivors per litter", "setting": "fetal rats [3]", "value": "4.0*"},
      {"measurement": "No. of litters with dead fetuses", "setting": "fetal rats [3]", "value": 5},
      {"measurement": "No. surviving fetus", "setting": "fetal rats [3]", "value": 56},
      {"measurement": "Number of hydrocephalic fetal rats", "setting": "fetal rats [4]", "value": 2},
      {"measurement": "Net Weight Gain", "setting": "[5]; aspirin 250 mg/kg oral", "value": "47.8 ± 13.9", "unit": "g"},
      {"measurement": "Net weight gain vs negative control group", "setting": "[5]; aspirin 250 mg/kg, p<0.05", "value": "significantly lower than that of the negative control group"}
    ]}
  ]
}
